Experimental data from patent publication US5719291A, “Cyclohexane derivatives” (Hoffmann-La Roche Inc., priority 1991, dated 1998).
Converted amounts (≈) assume the structure as drawn. Structures can show the parent of a compound that is named as a salt. Where two headings read alike, the source gives them in different places.

What was measured:
Assay type in all cases: cell-based
[1] = tested on: A. fumigatus; test: In vitro antifungal activity, IC80 (Method B); conditions: Aspergillus fumigatus, read-out: Antifungal activity IC80
Method: (§1) The in vitro antifungal activities of the representative compounds of the present invention shown in Table 1 and Table 2 were measured by determining the minimal inhibitory concentrations (MIC: Method A) or 80% growth inhibition concentration (IC80 : Method B) respectively. MIC is defined as the concentration of an antifungal at which growth of fungi is not observed and IC80 is the concentration where cell turbidity measured at OD630 is reduced by 80%.
(§2) Antifungal activities were determined by either method A or B (see below) using microtest plates according NCCLS with minor modifications (Galgiani et at., Antimicrob. Agents Chemother. 33, 731 (1989)).
(§3) (Method B) The medium for yeast was buffered to pH 7.0 with 0.25% K2 HPO4 in Yeast Nitrogen Base (Difco Lab.). For the filamentous fungi, 0.2% of low melting point agar was supplemented to the above medium. Inoculum size was 1×10^4 cells/ml, and incubation was carried out for 1-2 days at 27° C. Fluconazole (Pfizer) was used as reference.

[2] = tested on: C. neoformans; test: In vitro antifungal activity, IC80 (Method B); conditions: Cryptococcus neoformans
Method: as §1, §2, §3

[3] = tested on: Candida albicans; test: In vitro antifungal activity, IC80 (Method B)
Method: as §1, §2, §3

[4] = tested on: Aspergillus fumigatus; test: In vitro antifungal activity, MIC (Method A); conditions: 3 days, 27° C.; for Antifungal activity MIC: 1×10^5 cells/ml, pH 7.0; for MIC: Aspergillus fumigatus, 72 h
Method: (§4) The in vitro antifungal activities of representative compounds of the present invention were measured by determining the minimal inhibitory concentration (MIC), which is the concentration of an antifungal at which no fungal growth can be observed.
(§5) The MICs were determined by the microbroth dilution procedure according to NCCLS with the following minor modifications (Galgiani et al., Antimicrob. Agents Chemother., 33, 731 (1989). The medium was solidified with 0.2% low melting point agarose and buffered to pH 7.0 with 0.25%: K2 HPO4 in Yeast Nitrogen Base (Difco Lab.). Inoculum size was 1×10^5 cells/ml, and incubation was carried out for 3 days at 27° C. The MICs ([…]) are shown in Table 1. The reference compound is compound (IA) in U.S. Pat. No. 4,952,604. The compounds used are identified by reference to the Examples in which they were prepared.
as §1, §2
(§6) (Method A) The medium was solidified with 0.2% low melting point agarose and buffered to pH 7.0 with 0.25% K2 HPO4 in Yeast Nitrogen Base (Difco Lab.). Inoculum size was 1×10^5 cells/ml, and incubation was carried out for 3 days at 27° C. The reference compound is compound (IA) in U.S. Pat. No. 4,952,604.

[5] = tested on: Candida albicans; test: In vitro antifungal activity, MIC (Method A); conditions: 3 days, 27° C.; for Antifungal activity MIC: 1×10^5 cells/ml, pH 7.0; for MIC: Candida albicans, 72 h
Method: as §4, §5, §1, §2, §6

[6] = tested on: Cryptococcus neoformans; test: In vitro antifungal activity, MIC (Method A); conditions: 3 days, 27° C.; for Antifungal activity MIC: 1×10^5 cells/ml, pH 7.0; for MIC: Cryptococcus neoformans, 72 h
Method: as §4, §5, §1, §2, §6

[7] = A. fumigatus CF1003, 1×10^4 cells/ml, 1-2 days, 27° C., 0.2% agar
[8] = A. fumigatus CF1004, 1×10^4 cells/ml, 1-2 days, 27° C., 0.2% agar
[9] = pH 7, C. neoformans CY1057, 1×10^4 cells/ml, 1-2 days, 27° C., read-out: Antifungal activity IC80
[10] = pH 7, C. neoformans CY1059, 1×10^4 cells/ml, 1-2 days, 27° C., read-out: Antifungal activity IC80
[11] = pH 7, Candida albicans CY1002, 1×10^4 cells/ml, 1-2 days, 27° C., read-out: Antifungal activity IC80
[12] = pH 7, Candida albicans CY1005, 1×10^4 cells/ml, 1-2 days, 27° C., read-out: Antifungal activity IC80
[13] = pH 7, Candida albicans CY3003, 1×10^4 cells/ml, 1-2 days, 27° C., read-out: Antifungal activity IC80

Compound | IC80 [1, 7] | IC80 [1, 8] | IC80 [2, 9] | IC80 [2, 10] | IC80 [3, 11] | IC80 [3, 12] | IC80 [3, 13] | other results
OC(Cn1cncn1)(Cn1cncn1)c1ccc(F)cc1F [FCZ, Fluconazole, reference compound] | – | – | – | – | – | – | – | IC80 [1]: 150 µg/mL (≈ 490 µM); IC80 ([2]; pH 7, read-out: Antifungal activity IC80, C. neoformans CY1057, 1×10^4 cells/ml, 1-2 days, 27° C.): 5.2 µg/mL (≈ 17 µM); IC80 ([2]; pH 7, read-out: Antifungal activity IC80, C. neoformans CY1059, 1×10^4 cells/ml, 1-2 days, 27° C.): 8.6 µg/mL (≈ 28.1 µM); IC80 ([3]; pH 7, read-out: Antifungal activity IC80, Candida albicans CY1002, 1×10^4 cells/ml, 1-2 days, 27° C.): 1.1 µg/mL (≈ 3.59 µM); IC80 ([3]; pH 7, read-out: Antifungal activity IC80, Candida albicans CY1005, 1×10^4 cells/ml, 1-2 days, 27° C.): 1.2 µg/mL (≈ 3.92 µM); IC80 ([3]; pH 7, read-out: Antifungal activity IC80, Candida albicans CY3003, 1×10^4 cells/ml, 1-2 days, 27° C.): 1 µg/mL (≈ 3.27 µM)
CO[C@@H]1[C@@H](Cn2cncn2)[C@H](CCc2ccc3ccccc3c2)CCC1(C)C [Example 75, 1-[[(1R,2R,6R)-2-methoxy-3,3-dimethyl-6-(2-b-naphthylethyl)cyclohexyl]methyl]-1H,1,1,4-triazole] | > 200 µg/mL | > 200 µg/mL | 0.19 µg/mL (≈ 0.503 µM) | 1.3 µg/mL (≈ 3.44 µM) | 0.18 µg/mL (≈ 0.477 µM) | 0.2 µg/mL (≈ 0.53 µM) | 0.34 µg/mL (≈ 0.901 µM) | –
CCc1ccc(OC[C@@H]2CCC(C)(C)[C@H](OC)[C@H]2Cn2cncn2)cc1 [Example 83, 1-[[(1R,2R,6R)-2-methoxy-3,3-dimethyl-6-(4-ethylphenoxy)methyl]methyl]-1H,1,2,4-triazole] | > 200 µg/mL | > 200 µg/mL | 0.21 µg/mL (≈ 0.587 µM) | 0.19 µg/mL (≈ 0.531 µM) | 0.31 µg/mL (≈ 0.867 µM) | 0.24 µg/mL (≈ 0.671 µM) | 0.59 µg/mL (≈ 1.65 µM) | –
CO[C@@H]1[C@@H](Cn2cncn2)[C@H](CCc2ccc(C)cc2)CCC1(C)C [Example 74] | 20 µg/mL (≈ 58.6 µM) | 24 µg/mL (≈ 70.3 µM) | 0.46 µg/mL (≈ 1.35 µM) | 3.8 µg/mL (≈ 11.1 µM) | 0.076 µg/mL (≈ 0.223 µM) | 0.093 µg/mL (≈ 0.272 µM) | 0.038 µg/mL (≈ 0.111 µM) | –
CO[C@@H]1[C@@H](Cn2cncn2)[C@H](CSc2ccc(Cl)cc2)CCC1(C)C [Example 73, 1-[[(1R,2R,6R)-6-[(4-chlorophenylthio)methyl]-2-methoxy-3,3-dimethylcyclohexyl]methyl]-1H-1,2,4-triazole] | 23 µg/mL (≈ 60.5 µM) | 23 µg/mL (≈ 60.5 µM) | 5.8 µg/mL (≈ 15.3 µM) | 6.1 µg/mL (≈ 16.1 µM) | 0.008 µg/mL (≈ 0.0211 µM) | 0.011 µg/mL (≈ 0.029 µM) | 0.02 µg/mL (≈ 0.0526 µM) | –
CCc1ccc(CC[C@@H]2CCC(C)(C)[C@H](OC)[C@H]2Cn2cncn2)cc1 [Example 81, 1-[[(1R,2R,6R)-6-(4-ethylphenyl)ethyl-2-methoxy-3,3-dimethyl-cyclohexyl]methyl]-1H-1,2,4-triazole] | > 200 µg/mL | > 200 µg/mL | 1.5 µg/mL (≈ 4.22 µM) | 1.5 µg/mL (≈ 4.22 µM) | 0.0075 µg/mL (≈ 0.0211 µM) | 0.025 µg/mL (≈ 0.0703 µM) | 0.0042 µg/mL (≈ 0.0118 µM) | –
CO[C@@H]1[C@@H](Cn2cncn2)[C@H](CCc2ccc(OC(F)(F)F)cc2)CCC1(C)C [Example 78, 1-[[(1R,2R,6R)-6-(p-trifluoromethoxyphenethyl)-2-methoxy-3,3-dimethylcyclohexyl]methyl]-1H-1,2,4-triazole] | > 200 µg/mL | > 200 µg/mL | 8.4 µg/mL (≈ 20.4 µM) | 21 µg/mL (≈ 51 µM) | 0.03 µg/mL (≈ 0.0729 µM) | 0.093 µg/mL (≈ 0.226 µM) | 0.071 µg/mL (≈ 0.173 µM) | –
CO[C@@H]1[C@@H](Cn2cncn2)[C@H](CCc2ccc(F)cc2F)CCC1(C)C [Example 80, 1-[[(1R,2R,6S)-6-(2,4-difluorophenethyl)-2-methoxy-3,3-dimethylcyclohexyl]methyl]-1H-1,2,4-triazole] | 93 µg/mL (≈ 256 µM) | 40 µg/mL (≈ 110 µM) | 11 µg/mL (≈ 30.3 µM) | 12 µg/mL (≈ 33 µM) | 0.35 µg/mL (≈ 0.963 µM) | 0.65 µg/mL (≈ 1.79 µM) | 0.19 µg/mL (≈ 0.523 µM) | –
(2S,3R,4S,5R)-5-butoxy-4-methoxy-2-[(E)-1-nonenyl]tetra-hydro-2H-pyran-3-ylglycinate trifluoroacetic acid salt [Example 35] | – | – | – | – | – | – | – | Antifungal activity MIC ([4]; Aspergillus fumigatus CF1003): 25 µg/mL; Antifungal activity MIC ([4]; Aspergillus fumigatus CF1004): 25 µg/mL; Antifungal activity MIC ([4]; Aspergillus fumigatus CF1023): 25 µg/mL; Antifungal activity MIC ([5]; Candida albicans CY1002): 25 µg/mL; Antifungal activity MIC ([5]; Candida albicans CY1005): 25 µg/mL; Antifungal activity MIC ([5]; Candida albicans CY3003): 50 µg/mL; Antifungal activity MIC ([6]; Cryptococcus neoformans CY1057): 3.13 µg/mL; Antifungal activity MIC ([6]; Cryptococcus neoformans CY1059): 6.25 µg/mL; Antifungal activity MIC ([6]; Cryptococcus neoformans CY1061): 12.5 µg/mL
CCCCCCCCC[C@@H]1OC[C@H](C)[C@H](OCCC)[C@H]1OC(=O)CN [Example 23, 2S,3R,4S,5S)-5-methyl-2-nonyl-4-propoxytetrahydro-2-H-pyran-3-yl glycinate trifluoroacetic acid salt] | – | – | – | – | – | – | – | MIC ([4]; pH 7, Aspergillus fumigatus CF1003, 1×10^5 cells/ml): 50 µg/mL; MIC ([4]; pH 7, Aspergillus fumigatus CF1004, 1×10^5 cells/ml): 50 µg/mL; MIC ([4]; pH 7, Aspergillus fumigatus CF1023, 1×10^5 cells/ml): 50 µg/mL; MIC ([5]; pH 7, Candida albicans CY1002, 1×10^5 cells/ml): 25 µg/mL; MIC ([5]; pH 7, Candida albicans CY1005, 1×10^5 cells/ml): 25 µg/mL; MIC ([5]; pH 7, Candida albicans CY3003, 1×10^5 cells/ml): 50 µg/mL; MIC ([6]; pH 7, Cryptococcus neoformans CY1057, 1×10^5 cells/ml): 12.5 µg/mL; MIC ([6]; pH 7, Cryptococcus neoformans CY1059, 1×10^5 cells/ml): 12.5 µg/mL; MIC ([6]; pH 7, Cryptococcus neoformans CY1061, 1×10^5 cells/ml): 12.5 µg/mL
(2S,3R,4S,5S)-4-methoxy-5-methyl-2-[(E)-1-nonenyl]tetra-hydro-2H-pyran-3-ylglycinate trifluoroacetic acid salt [Example 24] | – | – | – | – | – | – | – | Antifungal activity MIC ([4]; Aspergillus fumigatus CF1003): 50 µg/mL; Antifungal activity MIC ([4]; Aspergillus fumigatus CF1004): 25 µg/mL; Antifungal activity MIC ([4]; Aspergillus fumigatus CF1023): 50 µg/mL; Antifungal activity MIC ([5]; Candida albicans CY1002): 50 µg/mL; Antifungal activity MIC ([5]; Candida albicans CY1005): 100 µg/mL; Antifungal activity MIC ([5]; Candida albicans CY3003): 50 µg/mL; Antifungal activity MIC ([6]; Cryptococcus neoformans CY1057): 25 µg/mL; Antifungal activity MIC ([6]; Cryptococcus neoformans CY1059): 25 µg/mL; Antifungal activity MIC ([6]; Cryptococcus neoformans CY1061): 50 µg/mL
